pKd, pKi: −log10 of the molar value. Where two headings read alike, the source gives them in different places.
Experiments:
rabbit NPC1L1 = rabbit NPC1L1 (Oryctolagus cuniculus, UniProt A0MJA7); assay: Fluorescence NPC1L1 binding assay, HEK-293 cells, BODIPY-labeled compound 1; settings: for pKi: read-out: Ki Rabbit NPC1L1
Protocol: (§1) Cell Culture and Membrane Preparation. Each plasmid pCR3.1 harboring NPC1L1 was prepared using standard molecular biology protocols. Stable cell lines expressing human, rhesus monkey, mouse, rat, hamster, canine or rabbit NPC1L1 were generated using Lipofectamine 2000 transfection reagent in HEK-293 cells according to the manufacturer's protocol. Cells were maintained in DMEM supplemented with 10% FBS, 100 U/ml pen/strep, and 500 μg/ml geneticin at 37° C., 5% CO2. All cell culture reagents were obtained from Invitrogen Life Technologies, (Carlsbad, Calif.). Cell membranes were prepared by lysing cells in 5 mM HEPES with protease inhibitors (Complete™ Protease Inhibitor Cocktail Tablets; Roche Diagnostics Corp., Indianapolis Ind.) for 15 min at 4° C. A membrane pellet was obtained by centrifuging the cell lysates at 12,000×g for 25 min. The membranes were resuspended in 5 mM HEPES with protease inhibitors and triturated with a 21G needle.
(§2) Fluorescence. Cells were plated into 384-well black/clear plates (BD Biosciences, Bedford Mass.) for binding experiments the following day. The media was aspirated. […] Media (20 μl) containing the indicated concentration of compound was then added to the wells. […] The binding reaction was allowed to proceed for 4 hours at 37° C. Subsequently the media was aspirated and the cells washed once with PBS.

rat NPC1L1 = biological target: T1, rat NPC1L1 (Rattus norvegicus, UniProt Q6T3U3, A349V/E317P/G318E/K324N/L297S); assay: as above; settings: for pKi: read-out: Ki Rat NPC1L1
T1 construct: expressed in transfected cells
Protocol: as §1, §2

canine NPC1L1 = canine NPC1L1 (Canis lupus familiaris, UniProt A0MJA4); assay: as above; settings: for pKi: read-out: Ki Dog NPC1L1
Protocol: as §1, §2

human NPC1L1 [1] = biological target: T2, human NPC1L1 (Homo sapiens, UniProt Q9UHC9, T1073A); assay: as above; settings: for pKi: read-out: Ki Human NPC1L1
T2 construct: expressed in transfected cells
T2 sequence (Q9UHC9 22-1332 isoform Q9UHC9-2 T1046A): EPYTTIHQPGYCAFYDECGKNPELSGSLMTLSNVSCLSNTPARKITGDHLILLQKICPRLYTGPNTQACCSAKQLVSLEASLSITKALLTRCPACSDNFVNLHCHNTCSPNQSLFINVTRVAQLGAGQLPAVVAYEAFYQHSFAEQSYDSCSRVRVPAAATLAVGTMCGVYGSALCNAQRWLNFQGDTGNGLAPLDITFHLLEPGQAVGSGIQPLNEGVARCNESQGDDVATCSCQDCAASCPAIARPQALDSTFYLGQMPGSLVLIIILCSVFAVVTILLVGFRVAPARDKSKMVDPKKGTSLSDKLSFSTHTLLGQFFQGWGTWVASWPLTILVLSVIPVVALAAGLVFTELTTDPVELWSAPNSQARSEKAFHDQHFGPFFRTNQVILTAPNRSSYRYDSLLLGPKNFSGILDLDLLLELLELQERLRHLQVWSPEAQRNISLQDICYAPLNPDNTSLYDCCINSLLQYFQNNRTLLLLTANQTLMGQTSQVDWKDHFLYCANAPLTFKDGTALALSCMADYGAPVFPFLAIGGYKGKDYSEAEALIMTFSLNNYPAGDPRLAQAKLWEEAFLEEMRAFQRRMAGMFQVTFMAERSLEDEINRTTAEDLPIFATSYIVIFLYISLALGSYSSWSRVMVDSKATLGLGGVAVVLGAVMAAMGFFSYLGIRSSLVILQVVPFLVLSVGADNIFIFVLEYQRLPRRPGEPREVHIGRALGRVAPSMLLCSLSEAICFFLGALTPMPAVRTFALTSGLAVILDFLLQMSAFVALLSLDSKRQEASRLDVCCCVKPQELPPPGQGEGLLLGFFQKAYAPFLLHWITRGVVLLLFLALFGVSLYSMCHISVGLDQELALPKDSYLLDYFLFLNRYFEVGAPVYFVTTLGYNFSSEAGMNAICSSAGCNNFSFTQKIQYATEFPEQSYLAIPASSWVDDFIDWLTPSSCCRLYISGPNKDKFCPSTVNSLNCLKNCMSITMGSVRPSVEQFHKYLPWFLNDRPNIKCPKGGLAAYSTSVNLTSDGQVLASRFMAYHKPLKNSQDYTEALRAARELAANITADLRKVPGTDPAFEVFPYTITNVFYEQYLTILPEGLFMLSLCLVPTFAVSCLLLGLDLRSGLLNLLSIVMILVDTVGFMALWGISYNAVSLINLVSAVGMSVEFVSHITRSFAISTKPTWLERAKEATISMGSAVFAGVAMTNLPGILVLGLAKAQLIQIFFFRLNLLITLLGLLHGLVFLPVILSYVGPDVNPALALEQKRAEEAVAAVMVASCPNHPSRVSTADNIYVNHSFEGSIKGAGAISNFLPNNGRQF
Protocol: as §1, §2

hamster NPC1L1 = hamster NPC1L1 (Mesocricetus auratus, UniProt A0MJA8); assay: as above; settings: for pKi: read-out: Ki Hamster NPC1L1
Protocol: as §1, §2

human NPC1L1 [2] = biological target: T2, human NPC1L1; assay: Radioligand binding of [3H]-glucuronidated ezetimibe (compound 4) to cell membranes
Protocol: (§3) Cell Culture and Membrane Preparation. […] Cells were maintained in DMEM supplemented with 10% FBS, 100 U/ml pen/strep, and 500 μg/ml geneticin at 37° C., 5% CO2. All cell culture reagents were obtained from Invitrogen Life Technologies, (Carlsbad, Calif.). Cell membranes were prepared by lysing cells in 5 mM HEPES with protease inhibitors (Complete™ Protease Inhibitor Cocktail Tablets; Roche Diagnostics Corp., Indianapolis Ind.) for 15 min at 4° C. A membrane pellet was obtained by centrifuging the cell lysates at 12,000×g for 25 min. […] Radioligand. […] Natl. Acad. Sci. […] Reactions were performed in binding buffer (5 mM HEPES, 5.5 mM glucose, 117 mM NaCl and 5.4 mM KCl, pH 7.4). Cell membranes (50 μg in 20 μl) were added to each well. […] Binding reactions were incubated for 2 hours at 37° C. Samples were transferred to Unifilter-96 GF/C plates (Perkin Elmer, Wellesley Mass.) and filtered using a Brandel harvester (Gaithersburg Md.). […] Liquid scintillant (50 μl; Microscint-20, Perkin Elmer, Wellesley Mass.) was added and the bound radioactivity was measured using a microplate scintillation counter.

mouse NPC1L1 = biological target: T3, mouse NPC1L1 (Mus musculus, UniProt Q6T3U4, N476K); assay: Fluorescence NPC1L1 binding assay, HEK-293 cells, fluorescent compound 2 as ligand; settings: for pKi: read-out: Ki Mouse NPC1L1
T3 construct: expressed in transfected cells
Protocol: as §1, §2
In an effort to show binding to mouse NPC1L1, several related ezetimibe analogs were examined as possible alternatives to fluorescently-labeled (BODIPY) ezetimibe glucuronide (compound 1) in the binding assay. Compound 2, which is a fluorescently labeled synthetic precursor for fluorescently-labeled (BODIPY) ezetimibe glucuronide (compound 1; Burnett et al., Bioorganic and Medicinal Chemistry Letters 12:315-318 (2002)), was identified as a viable option for detection of mouse NPC1L1 binding. Compound 2 contains a methyl ester substitution for the carboxylic acid on the glucuronide portion of the molecule (compound structures shown in FIG. 4A).

monkey NPC1L1 [3] = biological target: T4, monkey NPC1L1 (Macaca mulatta, UniProt A0MJA5); assay: Fluorescence NPC1L1 binding assay, HEK-293 cells, BODIPY-labeled compound 1; parameters: species or system rhesus monkey; settings: for pKi: read-out: Ki Monkey NPC1L1
Protocol: as §1, §2

monkey NPC1L1 [4] = biological target: T4, monkey NPC1L1; assay: Radioligand binding of [3H]-glucuronidated ezetimibe (compound 4) to cell membranes; parameters: species or system rhesus monkey
Protocol: as §3

[5] = test system: plasma and liver cholesterol; assay: Percent cholesterol lowering in plasma and liver; assay type: in vivo; settings: hamster
cholesterol = assay: In vivo cholesterol lowering activity
[6] = test system: ^14C-cholesterol absorption; assay: Acute cholesterol absorption assay; assay type: in vivo; settings: intraduodenal
Protocol: Acute cholesterol absorption assay. ^14C-cholesterol absorption was determined acutely in rats using conditions previously described (Van Heek et al., J. Pharmacol. Exp. Ther. 283: 157-163 (1997)). Compounds were dissolved in rat bile and delivered (1.0 ml) intraduodenally by bolus injection via an intestinal catheter, followed by 1.0 ml saline rinse (0.9%). Following a 30 min incubation, a cholesterol emulsion containing 3 mg cholesterol and 2 μCi ^14C-cholesterol (3 ml) was delivered to each rat as a bolus via intestinal catheter, followed by 1 ml saline rinse. Animals were sacrificed 90 min later and ^14C-cholesterol levels in plasma, liver, intestinal contents, and intestinal wall were determined.

[7] = test system: NPC1L1 orthologs of multiple species; assay: Binding to NPC1L1 orthologs of multiple species; settings: NPC1L1 orthologs of the species tested
Protocol: as §1, §2

Row | SMILES | pKi (human NPC1L1 [2]) | pKi (monkey NPC1L1 [4]) | pKi (rabbit NPC1L1; Table 3, Rabbit) | pKi (rat NPC1L1; Table 3, Rat) | pKi (canine NPC1L1; Table 3, Dog) | pKi (human NPC1L1 [1]; Table 3, Human) | pKi (hamster NPC1L1; Table 3, Hamster) | cholesterol lowering Liver [5] [%] | cholesterol lowering Plasma [5] [%] | in vivo cholesterol lowering activity (cholesterol) | pKi (mouse NPC1L1; Table 3, Mouse) | pKi (monkey NPC1L1 [3]; Table 3, Monkey) | NPC1L1 binding activity [7] | also measured
1 | Cc1cc(C)n2c1C=C1C=CC(CCC(=O)NCC#Cc3ccc(N4C(=O)[C@H](CC[C@H](O)c5ccc(F)cc5)[C@H]4c4ccc(O[C@@H]5O[C@H](C(=O)O)[C@@H](O)[C@H](O)[C@H]5O)cc4)cc3)=[N+]1[B-]2(F)F [compound 1, BODIPY-labeled glucuronidated ezetimibe] | 5.60 | 6.68 |  |  |  |  |  |  |  |  |  |  |  | pKd (rabbit NPC1L1; saturation binding, rabbit NPC1L1, 4 h): 6.82; pKd (rat NPC1L1; saturation binding, rat NPC1L1, 4 h): 7.24; pKd (canine NPC1L1; saturation binding, canine NPC1L1, 4 h): 7.28; pKd (human NPC1L1 [1]; saturation binding, human NPC1L1, 4 h): 7.21; pKd (hamster NPC1L1; saturation binding, hamster NPC1L1, 4 h): 7.31; Kd (mouse NPC1L1; saturation binding, mouse NPC1L1): could not be detected; pKd (monkey NPC1L1 [3]; saturation binding, monkey NPC1L1, 4 h): 7.34
2 | COC(=O)[C@H]1O[C@@H](Oc2ccc([C@@H]3[C@@H](CC[C@H](O)c4ccc(F)cc4)C(=O)N3c3ccc(C#CCNC(=O)CCC4=[N+]5C(=Cc6c(C)cc(C)n6[B-]5(F)F)C=C4)cc3)cc2)[C@H](O)[C@@H](O)[C@@H]1O [compound 2] | 6.92 | 7.15 |  |  |  |  |  |  |  |  |  |  |  | pKd (mouse NPC1L1; saturation binding, mouse NPC1L1, read-out: Kd): 6.93; increase in affinity versus compound 1 (monkey NPC1L1 [4]; monkey NPC1L1, methyl ester for carboxylic acid): 3 fold
3 | O=C1[C@H](CC[C@H](O)c2ccc(F)cc2)[C@@H](c2ccc(O[C@@H]3O[C@H](CO)[C@@H](O[C@@H]4O[C@H](CO)[C@@H](O)[C@H](O)[C@H]4O)[C@H](O)[C@H]3O)cc2)N1c1ccc(F)cc1 [compound 5] |  |  | 5.72 | 6.27 | 5.89 | 5.67 | 5.92 | 86 | 36 | exhibiting in vivo cholesterol lowering activity | 5.11 | 6.43 |  | 
4 | O=C1[C@H](CC[C@H](O)c2ccc(F)cc2)[C@@H](c2ccc(O)cc2)N1c1ccc(I)cc1 [compound 6] |  |  | 5.30 | 5.84 | 5.84 | 5.34 | 5.63 | 63 | 22 | exhibiting in vivo cholesterol lowering activity | 4.79 | 5.80 |  | 
5 | O=C(CS[C@H]1C(=O)N(c2ccc(F)cc2)[C@@H]1c1ccc(O)cc1)c1ccc(F)cc1 [compound 7] |  |  | 5.25 | 5.68 | 5.64 |  | 5.37 | 96 | 47 | exhibiting in vivo cholesterol lowering activity | 4.67 |  | decreased | ED50 ([6]; rat, read-out: rat ED50, inhibition of cholesterol absorption): 0.036 mg/kg
6 | COc1ccc(N2C(=O)[C@H](CCCc3ccccc3)[C@H]2c2ccc(O[C@@H]3O[C@H](COCc4ccccc4)[C@@H](OCc4ccccc4)[C@H](OCc4ccccc4)[C@H]3OCc3ccccc3)cc2)cc1 [compound 8] |  |  |  |  |  |  |  |  |  | no in vivo cholesterol lowering activity |  |  | total loss | Ki Rabbit NPC1L1 (rabbit NPC1L1; Table 3, Rabbit): In- active; Ki Rat NPC1L1 (rat NPC1L1; Table 3, Rat): In- active; Ki Dog NPC1L1 (canine NPC1L1; Table 3, Dog): In- active; Ki Human NPC1L1 (human NPC1L1 [1]; Table 3, Human): In- active; Ki Hamster NPC1L1 (hamster NPC1L1; Table 3, Hamster): In- active; rat ED50, inhibition of cholesterol absorption [6]: In- active; Ki Mouse NPC1L1 (mouse NPC1L1; Table 3, Mouse): In- active; Ki Monkey NPC1L1 (monkey NPC1L1 [3]; Table 3, Monkey): In- active

Source: patent US8212016B2, “NPC1L1 orthologues” (Schering Corporation, priority 2006, dated 2012)
